The values that follow come from ChEMBL document CHEMBL1201862, “PubChem BioAssay data set” (2004).

Among the test systems are U-251; NCI-H23; HOP-62; UACC-257; SW-620; KM12; EKVX; K562; HOP-92; 786-0; IGROV-1; HCT-15; HL-60; NCI-H226; NCI-H522; RXF 393.
What all share (assay): NCI tumour cell line growth inhibition, 48 h

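Protocol summary: plate cells (96-well), add compound at 5 concentrations, incubate 48 h, interpolate endpoints linearly. Abbreviation: GI50, concentration required for 50% inhibition of growth.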 Active and inactive are the calls of the source. Cut-off read from the data, not from the text of the source: active = GI50 up to about 1.1 µM and inactive = higher.

As to `COC(=O)c1cc(O)ccc1NC(=O)c1ccc(O)cc1`, the GI50 in the assay with U-251, in the assay with NCI-H23, with HOP-62, in the assay on UACC-257, in the assay on SW-620 and with KM12 was > 100 µM (inactive) throughout. The GI50 in the assay on EKVX was > 100 µM (inactive); in the assay on K562, > 100 µM (inactive); in the assay on HOP-92, 87.7 µM (inactive); in the assay with 786-0, > 100 µM (inactive); in the assay with IGROV-1, > 100 µM (inactive); in the assay with HCT-15, greater than 100 µM. For the same compound, the GI50 in the assay on HL-60 was > 100 µM (inactive); with NCI-H226, > 100 µM (inactive); in the assay on NCI-H522 it was 41.4 µM (inactive).

`CN/N=C(\C)C(CN1CCCCC1)C(C1=C(O)c2ccccc2OC1)c1ccccc1` (stereo unspecified): the GI50 is 91.2 µM (inactive) in the assay with U-251; > 100 µM (inactive) with NCI-H23; > 100 µM (inactive) in the assay with HOP-62; > 100 µM (inactive) with RXF 393; > 100 µM (inactive) in the assay with UACC-257; > 100 µM (inactive) with SW-620. The GI50 in the assay with KM12 is > 100 µM (inactive); in the assay with EKVX it was > 100 µM (inactive); with K562, > 100 µM (inactive); in the assay on 786-0 it was > 100 µM (inactive); in the assay with IGROV-1 it was 78.3 µM (inactive); with HCT-15, greater than 100 µM. Moreover, the values for the GI50 in the assay with HL-60, in the assay on NCI-H226 and in the assay on NCI-H522 were 35.2 µM (inactive), > 100 µM (inactive) and > 100 µM (inactive), respectively.

As for `CC1(C)c2ccccc2N2O[C@@H]3C(=O)N(c4ccccc4)C(=O)[C@@H]3C21c1ccccc1` (stereo partly specified), the GI50 in the assay on NCI-H23 was > 100 µM (inactive); in the assay with HOP-62, > 100 µM (inactive); in the assay with RXF 393 it was 14.6 µM (inactive); in the assay with UACC-257, > 100 µM (inactive); with SW-620 it was > 100 µM (inactive); in the assay with KM12 it was > 100 µM (inactive). The GI50 with EKVX is > 100 µM (inactive); in the assay with K562, 56.4 µM (inactive); with 786-0, > 100 µM (inactive); in the assay on IGROV-1 it was > 100 µM (inactive); in the assay on HCT-15 it was greater than 100 µM; in the assay on HL-60, 30.8 µM (inactive). In addition, the GI50 was > 100 µM (inactive) with NCI-H226 and 41.1 µM (inactive) with NCI-H522.

As to `N#C/N=C(/NCCc1c[nH]c2ccccc12)Oc1ccccc1`, the GI50 with U-251, in the assay with NCI-H23, in the assay with HOP-62, in the assay with RXF 393, with UACC-257 and with SW-620 was > 100 µM (inactive) throughout. Also, the GI50 is 40.8 µM (inactive) in the assay with KM12; 26.7 µM (inactive) in the assay with EKVX; 26.8 µM (inactive) with K562; 8.57 µM (inactive) in the assay on 786-0; > 100 µM (inactive) with IGROV-1; 56.8 µM in the assay on HCT-15. The values for the GI50 in the assay on HL-60 and with NCI-H226 were 21.6 µM (inactive) and 77.3 µM (inactive), respectively.

On to `CC(C)OP(=O)(NC(=S)c1ccccc1)OC(C)C`, for which the GI50 in the assay with U-251, with NCI-H23, with UACC-257, with SW-620, with KM12 and with EKVX was > 100 µM (inactive) in each case. Moreover, the GI50 in the assay on K562 was > 100 µM (inactive); with HOP-92, > 100 µM (inactive); in the assay on 786-0, > 100 µM (inactive); in the assay with IGROV-1, > 100 µM (inactive); in the assay with HCT-15, greater than 100 µM; with NCI-H226 it was > 100 µM (inactive).

Regarding `CCC(=O)C1=C(OC(C)=O)C2Cc3c(n(C)c4ccccc34)C(C1)N2C` (stereo unspecified), the GI50 in the assay with U-251 is > 100 µM (inactive); in the assay with NCI-H23, 68.9 µM (inactive); in the assay on UACC-257 it was 24.5 µM (inactive); with SW-620 it was 26.1 µM (inactive); in the assay on KM12, 45.9 µM (inactive); with EKVX, 64.3 µM (inactive). In addition, the GI50 with K562 is 33.3 µM (inactive); in the assay on HOP-92, 67 µM (inactive); with 786-0 it was 22.2 µM (inactive); in the assay on IGROV-1 it was 29.9 µM (inactive); in the assay with HCT-15, 18.7 µM; in the assay with HL-60, 21.6 µM (inactive). The GI50 is > 100 µM (inactive) with NCI-H226 and 15.3 µM (inactive) in the assay with NCI-H522.

In the case of `CC1CCP(=O)(c2ccccc2)c2ccccc21` (stereo unspecified), the GI50 in the assay on U-251 was 24.1 µM (inactive); in the assay on NCI-H23, > 100 µM (inactive); in the assay on HOP-62 it was 78.7 µM (inactive); in the assay on RXF 393, > 100 µM (inactive); with UACC-257 it was 65.9 µM (inactive); in the assay with SW-620, > 10 µM (inactive). Also, the GI50 in the assay with KM12 is > 100 µM (inactive); in the assay on EKVX, > 100 µM (inactive); in the assay on K562, 25.1 µM (inactive); in the assay on 786-0, > 100 µM (inactive); in the assay on IGROV-1, > 100 µM (inactive); with HCT-15 it was 38.1 µM. The GI50 in the assay with HL-60 was 19.6 µM (inactive); in the assay on NCI-H226 it was > 100 µM (inactive); in the assay on NCI-H522 it was 43.6 µM (inactive).

On to `COC(=O)C1=C(C(=O)OC)SC(=CC#CC=C2SC(C(=O)OC)=C(C(=O)OC)S2)S1`, for which the GI50 was 16.1 µM (inactive) in the assay with U-251; 5.81 µM (inactive) in the assay on NCI-H23; 3.96 µM (inactive) in the assay with HOP-62; > 54.3 µM (inactive) in the assay on UACC-257; 26.9 µM (inactive) in the assay with SW-620; > 54.6 µM (inactive) in the assay with KM12. Moreover, the GI50 in the assay on EKVX is 52.2 µM (inactive); in the assay with K562, > 87.5 µM (inactive); in the assay with HOP-92, 16.2 µM (inactive); in the assay on 786-0 it was 5.79 µM (inactive); in the assay on IGROV-1, 18.2 µM (inactive); in the assay on HCT-15 it was 12.6 µM. For the same compound, the GI50 is > 100 µM (inactive) with HL-60, 10.6 µM (inactive) with NCI-H226 and 24.4 µM (inactive) in the assay on NCI-H522.

Turning to `N/N=C1\C(=O)N(CCc2ccccc2)C(=O)C1C(=O)NCCc1ccccc1` (stereo unspecified), the GI50 with U-251, in the assay with NCI-H23, with UACC-257, in the assay with SW-620, in the assay on KM12 and in the assay on EKVX was > 100 µM (inactive) throughout. Further, the GI50 with K562, in the assay on HOP-92, in the assay with 786-0, in the assay on IGROV-1, in the assay with HL-60 and with NCI-H226 was > 100 µM (inactive) throughout. In the assay on NCI-H522, the GI50 was > 100 µM (inactive).

Consider `CC(C)(Oc1ccc(/C=C/C(=O)c2ccc(Cl)cc2)cc1)C(=O)Nc1c(Cl)cccc1Cl`, for which the GI50 in the assay on U-251 is 12.5 µM (inactive); in the assay with NCI-H23, 17.3 µM (inactive); with HOP-62, 72.3 µM (inactive); with RXF 393 it was 20.6 µM (inactive); with UACC-257 it was 30.9 µM (inactive); in the assay on SW-620 it was 12.8 µM (inactive). The GI50 was 11.8 µM (inactive) with KM12; 57.8 µM (inactive) in the assay with EKVX; > 100 µM (inactive) in the assay on K562; 15.7 µM (inactive) with HOP-92; 19.6 µM (inactive) in the assay on 786-0; 26.9 µM (inactive) with IGROV-1. Further, the values for the GI50 in the assay with HCT-15 and in the assay with NCI-H226 were 15.1 µM and 25.5 µM (inactive), respectively.

As to `COc1ccc2c3c(coc13)C(CCC(=O)O)CC2` (stereo unspecified), the GI50 in the assay on U-251, in the assay with NCI-H23, in the assay with HOP-62, with RXF 393, in the assay on UACC-257 and in the assay with SW-620 was > 100 µM (inactive) in each case. For the same compound, the GI50 in the assay on EKVX is > 100 µM (inactive); in the assay with 786-0, > 100 µM (inactive); in the assay on IGROV-1, > 100 µM (inactive); in the assay on HCT-15, greater than 100 µM.
